Assay results taken from patent US12115222B2, “Compositions and methods for improving the solubility of erectile dysfunction therapeutics” (Villya LLC, priority 2023, dated 2024).
Where a name gives a salt, the structure may show the parent alone. Read-outs that look alike come from different tables or passages of the source.

What was measured:
[1] = cited from earlier work
[2] = From the text: After solubilizing the sugar and the compound in ethanol or aqueous ethanol, the ethanol is evaporated for example under a high rotary vacuum. The powder resulting from the evaporation step is then resolubilized (dissolved) in water. Another solvent can be methanol at 80% methanol, 95% (ACS grade) or greater (to 100% methanol) as well as combinations of methanol and ethanol or methanol and water. After solubilizing the sugar and the compound in ethanol or aqueous ethanol, the ethanol is evaporated for example under a high rotary vacuum. The powder resulting from the evaporation step is then resolubilized (dissolved) in water.
Generally, ingredients are deposited into a sealed container with ethanol and vortex-mixed to form a solution. The solution is subjected to centrifugation. The ethanol is evaporated off and the dried mixture was dissolved in water. This mixture is centrifuged again and the supernatant is filtered through a membrane. […] In one embodiment, the admixing process involves dissolving the PSD and sugar in the ethanol while stirring and adjusting the pH as necessary to obtain complete dissolution and a clear reaction mixture. The reaction mixture can then be dried to remove the ethanol. No further water washing or filtering is needed.
In this example, an oven-dried single-neck RB flask equipped with a magnetic stir bar was used. […] The reaction mixture was vigorously stirred at room temperature for 30 min at 20° C. […] The white solid was dried using vacuum drying performed at room temperature and a high vacuum pump for about one hour to remove the ethanol (EtOH) completely using an Edvards Model #RV8 […], a Heidolph type Basis Hei-VAP Value, No. 560-00000-0101. The high vacuum pump was connected to a cooling trap and the trap was connected to the RB flask. Vacuum strength was about 1 mm Hg.
The white foamy solid was dried over a high vacuum at room temperature for an additional hour to remove the water completely, by ascertaining changes in weight loss. Drying continued until further weight loss was not observed.
Step 1: In an oven-dried single neck RB flask equipped with magnetic stir and septa (flask cap), 5 mg sildenafil (0.01054 mmol) and 16.95 mg stevioside (1:2 molar ratio) were weighed into the RB flask and dissolved in 85% ethanol (˜2.0 mL, denatured 85% ethanol) at ambient temperature. The reaction mixture was vigorously stirred at room temperature for 30 min. […] The white solid was dried over a high vacuum for an hour to remove the ethanol completely (no further reduction in weight was observed).
Step 2: The obtained white solid was then dissolved in 2.0 mL water at room temperature in an RB flask with a magnetic stir bar. The reaction mixture was stirred at ambient temperature for 30 min. […] The white foamy solid was dried over a high vacuum at room temperature for an additional hour to remove the water completely. The weight of the flask was checked while drying until no further weight loss was observed.

[3] = Non-caloric sugar solubility in water and 95% ethanol
Experimental: In this experiment, the following sugars were compared for solubility: rubusoside, dulcoside A, rebaudioside B, dulcoside B, and rebaudioside D. Approximately 5.0 mg of each sugar was attempted to be dissolved in 0.6 mL water and vortexed for 2 minutes at room temperature.
In another experiment, 50 mg stevia was dissolved in either 2.0 mL water or 2.0 mL 95% ethanol.

[4] = cited from earlier work; remark: listed apart in the source
[5] = approximately 5.0 mg in 0.6 mL water, vortexed 2 minutes, room temperature

## Nc1nc2c(ncn2COCCO)c(=O)[nH]1 [Acyclovir]
[1]; drug alone
  water solubility: less than 1 mg/mL

## CCCCC[C@H](O)/C=C/[C@H]1[C@H](O)CC(=O)[C@@H]1CCCCCCC(=O)O [Alprostadil, (1R,2R,3R)-3-Hydroxy-2-[(E)-(3S)-3-hydroxy-1-octenyl]-5-oxocyclopentane heptanoic acid]
[2]
  solubility of the complex in water by NMR: 100%
[1]
  solubility in DMSO: soluble
[1]; distilled water
  solubility in distilled water: 8000 μg per 100 mL
[1]; drug alone
  solubility in water: insoluble
  water solubility: less than 1 mg/mL
[1]; printed over two lines: nearly / insoluble
  solubility in ethanol, ether and ethyl acetate: insoluble in ethanol, ether

## COc1ccc(CN=c2[nH]c(N3CCC[C@H]3CO)ncc2C(=O)NCc2ncccn2)cc1Cl [Avanafil, 4-[(3-chloro-4-methoxyphenyl)methylamino]-2-[(2S)-2-(hydroxymethyl)pyrrolidin-1-yl]-N-(pyrimidin-2-ylmethyl)pyrimidine-5-carboxamide]
[2]
  solubility in water by NMR: 100%
[1]; at 25° C.
  solubility in DMSO: Soluble in DMSO (97 mg/ml
[1]
  solubility in DMSO: soluble

## O=C(CO)[C@@H](O)[C@H](O)[C@H](O)CO [D-fructose]
[3]; Example 22, 200 mg, 20° C.
  solubility of the sugar in 95% ethanol (observation): not soluble
  solubility of the sugar in water (observation): soluble
[4]
  Sugar Solubility in 95% EtOH: Insoluble

## CC(=O)O[C@H]1C(=O)[C@@]2(C)[C@H]([C@H](OC(=O)c3ccccc3)[C@]3(O)C[C@H](OC(=O)[C@H](O)[C@@H](NC(=O)c4ccccc4)c4ccccc4)C(C)=C1C3(C)C)[C@]1(OC(C)=O)CO[C@@H]1C[C@@H]2O [Paclitaxel]
[2]
  Solubility of Paclitaxel In Ethanol, With Rubusoside: Soluble
  Solubility of Paclitaxel In Water after first being dissolved in EtOH, With Rubusoside: Insoluble
  Solubility of Paclitaxel In Water, With Rubusoside: Insoluble

## CC1(C)S[C@@H]2[C@H](NC(=O)COc3ccccc3)C(=O)N2[C@H]1C(=O)O [Penicillin V HCl, phenoxymethylpenicillinic acid]
[2]
  Solubility In 95% Ethanol, With Rubusoside (table of Example 25): Soluble
  Solubility In Water after first being dissolved in EtOH, With Rubusoside (table of Example 25): Soluble
  Solubility In Water, With Rubusoside (table of Example 25): Soluble
  Solubility of Penicillin V HCl In Ethanol, With Rubusoside: Soluble
  Solubility of Penicillin V HCl In Water after first being dissolved in EtOH, With Rubusoside: Soluble
  Solubility of Penicillin V HCl In Water, With Rubusoside: Soluble
[1]; Example 24
  Solubility of Penicillin V HCl In Ethanol, Without Rubusoside: Soluble
  Solubility of Penicillin V HCl In Water, Without Rubusoside: 0.636 mg/mL or at
[1]; Example 24, pH 1.8 acidified with HCl
  Solubility of Penicillin V HCl In Water, Without Rubusoside: HCl at 24 mg/100 mL
[1]; Example 25 (acyclovir and rubusoside), at 55° C.
  Solubility In Water, Without Rubusoside (table of Example 25): 1 mg/mL at 55 °C
[1]; Example 25 (acyclovir and rubusoside), at pH 1.8
  Solubility In Water, Without Rubusoside (table of Example 25): 24 mg/100 mL at
[1]; Example 25 (acyclovir and rubusoside)
  Solubility In 95% Ethanol, Without Rubusoside (table of Example 25): Soluble

## C=C1C[C@@]23CC[C@H]4[C@@](C)(CCC[C@@]4(C)C(=O)O[C@@H]4O[C@H](CO)[C@@H](O)[C@H](O)[C@H]4O)[C@@H]2CC[C@]1(O[C@@H]1O[C@H](CO)[C@@H](O)[C@H](O)[C@H]1O)C3 [Rubusoside]
[3]; [5]
  solubility of the sugar in water (observation): No undissolved
[4]
  Sugar Solubility in 95% EtOH: 10 mg/mL
  Sugar Solubility in Water: Soluble

## C=C1C[C@@]23CC[C@H]4[C@@](C)(CCC[C@@]4(C)C(=O)O[C@@H]4O[C@H](CO)[C@@H](O)[C@H](O)[C@H]4O)[C@@H]2CC[C@]1(O[C@@H]1O[C@H](CO)[C@@H](O)[C@H](O)[C@H]1O[C@@H]1O[C@H](CO)[C@@H](O)[C@H](O)[C@H]1O)C3 [Stevioside]
[4]
  Sugar Solubility in 95% EtOH: 30 mg/mL
  Sugar Solubility in Water: 4 g/L

## CN1CC(=O)N2[C@H](c3ccc4c(c3)OCO4)c3[nH]c4ccccc4c3C[C@@H]2C1=O [Tadalafil, (2R,8R)-2-(1,3-benzodioxol-5-yl)-6-methyl-3,6,17-triazatetracyclo[8.7.0.0^3, 8.0^11, 16]heptadeca-1(10),11,13,15-tetraene-4,7-dione]
[2]
  improvement in water solubility: ~2.3%
[2]; Example 31, Tadalafil:Tween 80 1:5 molar, after 3 minutes
  appearance of the dried gel in water: white and turbid solution
[2]; Example 31, tadalafil:P188:stevioside 1:10:5 molar
  appearance of the dried mixture in 3 mL water: white turbid solution
[2]; Example 31, tadalafil:P-188 1:10
  appearance of the dried mixture in water: turbid solution
[2]; Example 31, tadalafil:Tween 20 1:5 molar
  appearance of the dried mixture in 2.0 mL water: white turbid solution with solids still visible
[2]; Example 31, tadalafil:glycerol:stevioside 1:20:5
  appearance of the dried mixture in 3.0 mL water: white turbid solution
[2]; Example 31, tadalafil:glycerol:stevioside 1:20:5, 10 mg citric acid monohydrate, pH about 3.0
  low-intensity drug peaks by NMR: 2-3%
[2]; Example 31, tadalafil:glycerol:stevioside 1:30:5, citric acid, pH about 3.0
  appearance of the dried mixture in 3.0 mL water: white turbid
[2]; Example 31, tadalafil:stevioside 1:3 molar, citric acid in step 1
  appearance of the dried mixture in water: white turbid solution
[2]; Example 31, tadalafil:stevioside 1:10 molar, buffer pH 9.4 added in water
  appearance of the dried powder in 2 mL water: white turbid solution
[2]; Example 31, tadalafil:stevioside 1:10 molar, carbonate buffer pH 9.4 in step 1
  appearance of the dried mixture in water: white and turbid
[2]; pH 2.5
  solubility of the complex in water: not 100% soluble
[1]; at 25° C.
  solubility in water: 220 mg/L at 25 °C in water
[1]
  solubility in chloroform: soluble

## CCCOc1ccc(S(=O)(=O)NCCC2CCCN2C)cc1-c1nc2c(CCC)nn(C)c2c(=O)[nH]1 (centres unmarked) [Udenafil]
[1]
  solubility in DMSO: soluble
[1]; drug alone
  water solubility: about 0.0798 mg/mL

## CCCc1nc(C)c2c(=O)[nH]c(-c3cc(S(=O)(=O)N4CCN(CC)CC4)ccc3OCC)nn12 [Vardenafil HCl]
[2]
  solubility of the complex in water by NMR: 100%
[1]; at 28° C., solids remain present at 22° C.
  solubility in DMSO: soluble
[1]
  solubility in chloroform: insoluble

## CCCc1nc(C)c2c(=O)[nH]c(-c3cc(S(=O)(=O)N4CCN(CC)CC4)ccc3OCC)nn12 [Vardenafil, 2-[2-ethoxy-5-(4-ethylpiperazin-1-yl)sulfonylphenyl]-5-methyl-7-propyl-3H-imidazo[5,1-f][1,2,4]triazin-4-one]
[1]; at 25° C., Estimated
  solubility in water: 3.5 mg/L at 25° C./

## C=C1C[C@@]23CC[C@H]4[C@@](C)(CCC[C@@]4(C)C(=O)O[C@@H]4O[C@H](CO)[C@@H](O)[C@H](O)[C@H]4O)[C@@H]2CC[C@]1(O[C@@H]1O[C@H](CO)[C@@H](O)[C@H](O[C@@H]2O[C@H](CO)[C@@H](O)[C@H](O)[C@H]2O)[C@H]1O[C@@H]1O[C@@H](C)[C@H](O)[C@@H](O)[C@H]1O)C3 [dulcoside B]
[3]; [5]
  solubility of the sugar in water (observation): partially soluble
[4]
  Sugar Solubility in 95% EtOH: Slightly soluble
  Sugar Solubility in Water: Partly soluble

## CCCCCCCCCCCCO[C@@H]1O[C@H](CO)[C@@H](O[C@H]2O[C@H](CO)[C@@H](O)[C@H](O)[C@H]2O)[C@H](O)[C@H]1O [n-Dodecyl-β-D-maltoside]
[3]; 50 mg in 2.0 mL 95% ethanol
  solubility of the sugar in 95% ethanol (observation): soluble
[3]; 50 mg in 2.0 mL water
  solubility of the sugar in water (observation): soluble
[4]
  Sugar Solubility in 95% EtOH: Soluble
  Sugar Solubility in Water: 50 g/L

## C[C@]12C=CC(=O)C=C1CC[C@@H]1[C@@H]2C(=O)C[C@@]2(C)[C@H]1CC[C@]2(O)C(=O)CO [prednisone]
[2]; Example 23, rubusoside 50 mg : prednisone 5 mg
  appearance of the dried powder re-dissolved in 2 mL deionized water: white turbid mixture

## OC[C@H]1O[C@@](CO)(O[C@H]2O[C@H](CO)[C@@H](O)[C@H](O)[C@H]2O)[C@@H](O)[C@@H]1O [sucrose]
[4]
  Sugar Solubility in 95% EtOH: Insoluble
  Sugar Solubility in Water: 204 g/100 g water

## C[C@]12CC[C@H]3[C@@H](CCC4=CC(=O)CC[C@@]43C)[C@@H]1CC[C@@H]2OC(=O)CCC1CCCC1 [testosterone cypionate]
[2]; rubusoside 23.4 mg : testosterone cypionate 5 mg (3:1 sugar-to-drug)
  appearance of the dried mixture dissolved in water: white turbid solution
[2]; testosterone cypionate:stevioside 1:10 molar
  appearance of the dried powder in 2 mL water: white-turbid solution
